Patent US9540384B2, “Pyrrolidino heterocycles” (Hoffmann-La Roche Inc., priority 2012, dated 2017)

Target: human PDE10A full length (Homo sapiens (Human), UniProt Q9Y233)
Assay: human PDE10A full length Scintillation Proximity Assay (SPA)
Format: biochemical
Settings: PDE10A enzyme, 50 nM cGMP + 50 nM [3H]-cGMP, 20 minutes at room temperature
Description: The following test was carried out in order to determine the activity of the compounds of the present invention. PDE10 activity of the compounds of the present invention was determined using a Scintillation Proximity Assay (SPA)-based method similar to the one previously described (Fawcett, L. et al., Proc Natl Acad Sci USA (2000) 97(7):3702-3707).
The human PDE10A full length assay was performed in 96-well micro titer plates. The reaction mixture of 50 μl contained 20 mM HEPES pH=7.5/10 mM MgCl2/0.05 mg/ml BSA (Sigma cat. #A-7906), 50 nM cGMP (Sigma, cat. #G6129) and 50 nM [3H]-cGMP (GE Healthcare, cat. #TRK392 S.A. 13.2 Ci/mmol), 3.75 ng/well PDE10A enzyme (Enzo Life Science, Lausen, Switzerland cat #SE-534) with or without a specific test compound. A range of concentrations of the potential inhibitor was used to generate data for calculating the concentration of inhibitor resulting in 50% of the effect (e.g. IC50, the concentration of the competitor inhibiting PDE10A activity by 50%). Non-specific activity was tested without the enzyme. The reaction was initiated by the addition of the substrate solution (cGMP and [3H]-cGMP) and allowed to progress for 20 minutes at room temperature. The reaction was terminated by adding 25 μl of YSi-SPA scintillation beads (GE Healthcare, cat. #RPNQ0150) in 18 mM zinc sulphate solution (stop reagent). After 1 h under shaking, the plate was centrifuged one minute at 170 g to allow beads to settle. Afterwards, radioactive counts were measured on a Perkin Elmer TopCount Scintillation plate reader.

Chain of human PDE10A full length (Q9Y233 other isoform, or with tags, fused parts or gaps): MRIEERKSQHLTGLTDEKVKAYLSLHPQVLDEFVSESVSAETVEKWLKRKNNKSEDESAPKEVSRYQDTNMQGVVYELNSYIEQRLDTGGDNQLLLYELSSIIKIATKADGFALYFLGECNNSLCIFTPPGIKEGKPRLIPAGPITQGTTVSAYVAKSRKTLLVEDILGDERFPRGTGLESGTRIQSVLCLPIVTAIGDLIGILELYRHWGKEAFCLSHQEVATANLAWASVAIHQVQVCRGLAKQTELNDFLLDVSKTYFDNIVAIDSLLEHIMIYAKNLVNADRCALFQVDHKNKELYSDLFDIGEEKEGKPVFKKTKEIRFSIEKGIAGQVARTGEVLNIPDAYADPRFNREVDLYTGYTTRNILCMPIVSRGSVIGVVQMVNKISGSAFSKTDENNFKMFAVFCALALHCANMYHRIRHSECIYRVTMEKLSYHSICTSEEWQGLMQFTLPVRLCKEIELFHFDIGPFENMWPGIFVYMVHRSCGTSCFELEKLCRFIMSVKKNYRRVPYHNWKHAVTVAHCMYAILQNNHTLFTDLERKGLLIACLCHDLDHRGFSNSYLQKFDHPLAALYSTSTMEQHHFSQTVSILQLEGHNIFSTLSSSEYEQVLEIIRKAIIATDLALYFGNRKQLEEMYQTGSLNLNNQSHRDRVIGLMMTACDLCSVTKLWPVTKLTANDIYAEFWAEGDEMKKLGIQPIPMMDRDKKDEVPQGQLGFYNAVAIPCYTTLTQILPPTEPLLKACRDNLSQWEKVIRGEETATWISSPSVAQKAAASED

Structure (SMILES) | IC50
CN(C)c1nc(CCc2cccc(N3CCC(CO)C3)n2)nc2ccccc12 (stereo not shown) [Example 34, (1-(6-(2-(4-(Dimethylamino)quinazolin-2-yl)ethyl)pyridin-2-yl)pyrrolidin-3-yl)methanol] | 1630 nM
CC1CCCN1c1cccc(/C=C/c2nc(N(C)C)c3cc(Cl)ccc3n2)n1 (stereo not shown) [Example 35, (E)-6-Chloro-N,N-dimethyl-2-(2-(6-(2-methylpyrrolidin-1-yl)pyridin-2-yl)vinyl)quinazolin-4-amine] | 27 nM
CN(C)c1nc(/C=C/c2cccc(N3CCCC3=O)n2)nc2ccc(Cl)cc12 [Example 36, (E)-1-(6-(2-(6-chloro-4-(dimethylamino)quinazolin-2-yl)vinyl)pyridin-2-yl)pyrrolidin-2-one] | 820 nM
Cc1cccc2c(=O)[nH]c(CCc3cccc(N4CCCC4)n3)nc12 [Example 37, 8-methyl-2-(2-(6-(pyrrolidin-1-yl)pyridin-2-yl)ethyl)quinazolin-4(3H)-one] | 3270 nM
CC1CCCN1c1cccc(CCc2nc(N(C)C)c3cc(Cl)ccc3n2)n1 (stereo not shown) [Example 38, 6-Chloro-N,N-dimethyl-2-(2-(6-(2-methylpyrrolidin-1-yl)pyridin-2-yl)ethyl)quinazolin-4-amine] | 81 nM
CN(C)c1nc(/C=C/c2cccc(N(C)CCO)n2)nc2ccc(Cl)cc12 [Example 39, (E)-2-((6-(2-(6-Chloro-4-(dimethylamino)quinazolin-2-yl)vinyl)pyridin-2-yl)(methyl)amino)ethanol] | 240 nM
CN(C)c1nc(CCc2cccc(N(C)CCO)n2)nc2ccc(Cl)cc12 [Example 40, 2-((6-(2-(6-Chloro-4-(dimethylamino)quinazolin-2-yl)ethyl)pyridin-2-yl)(methyl)amino)ethanol] | 2160 nM
CN(C)c1cccc(/C=C/c2nc(N(C)C)c3cc(Cl)ccc3n2)n1 [Example 41, (E)-6-Chloro-2-(2-(6-(dimethylamino)pyridin-2-yl)vinyl)-N,N-dimethylquinazolin-4-amine] | 750 nM
CN(C)c1cccc(CCc2nc(N(C)C)c3cc(Cl)ccc3n2)n1 [Example 42, 6-Chloro-2-(2-(6-(dimethylamino)pyridin-2-yl)ethyl)-N,N-dimethyl-quinazolin-4-amine] | 1680 nM
Cc1ncc(C)n2nc(/C=C/c3cccc(N4CCCC4)n3)nc12 [Example 43, (E)-5,8-Dimethyl-2-(2-(6-(pyrrolidin-1-yl)pyridin-2-yl)vinyl)[1,2,4]triazolo[1,5-a]pyrazine] | 12 nM
Cc1nc2ccc(OCc3cccc(N4CCCC4)n3)nn2c1C [Example 44, 2,3-Dimethyl-6-((6-(pyrrolidin-1-yl)pyridin-2-yl)methoxy)imidazo[1,2-b]pyridazine] | 160 nM

Further lines, results first:

IC50 | Structure (SMILES)
4.5 nM | Cc1ncc(C)n2nc(CCc3cccc(N4CCCC4)n3)nc12 [Example 45, 5,8-Dimethyl-2-(2-(6-(pyrrolidin-1-yl)pyridin-2-yl)ethyl)-[1,2,4]triazolo-[1,5-a]pyrazine]
300 nM | Cc1cc(C)n2nc(CCc3cncc(N4CCCC4)n3)nc2n1 [Example 46, 5,7-Dimethyl-2-(2-(6-(pyrrolidin-1-yl)pyrazin-2-yl)ethyl)-[1,2,4]triazolo-[1,5-a]pyrimidine]
31 nM | Cc1cc(C)n2nc(/C=C/c3cccc(N4CCCC4)n3)nc2n1 [Example 47, (E)-5,7-Dimethyl-2-(2-(6-(pyrrolidin-1-yl)pyridin-2-yl)vinyl)[1,2,4]triazolo[1,5-a]pyrimidine]
110 nM | Cc1cc(C)n2nc(CCc3cccc(N4CCCC4)n3)nc2n1 [Example 48, 5,7-Dimethyl-2-[2-(6-pyrrolidin-1-yl-pyridin-2-yl)-ethyl]-[1,2,4]triazolo[1,5-a]pyrimidine]
630 nM | Cc1nc2ccc(CCc3cccc(N4CCCC4)n3)nn2c1C [Example 49, 2,3-Dmethyl-6-(2-(6-(pyrrolidin-1-yl)pyridin-2-yl)ethyl)imidazo[1,2-b]pyridazine]
18 nM | Cc1ncc(C)n2nc(/C=C/c3cncc(N4CCCC4)n3)nc12 [Example 50, (E)-5,8-Dim ethyl-2-(2-(6-(pyrrolidin-1-yl)pyrazin-2-yl)vinyl)[1,2,4]triazolo[1,5-a]pyrazine]
140 nM | Cc1ncc(C)n2nc(CCc3cncc(N4CCCC4)n3)nc12 [Example 51, 5,8-Dimethyl-2-(2-(6-(pyrrolidin-1-yl)pyrazin-2-yl)ethyl)-[1,2,4]triazolo[1,5-a]pyrazine]
540 nM | CCc1nc2ccc(OCc3cccc(N4CCCC4)n3)nn2c1C [Example 52, 2-Ethyl-3-methyl-6-((6-(pyrrolidin-1-yl)pyridin-2-yl)methoxy)imidazo[1,2-b]pyridazine]
69 nM | Cc1nn2ccc(OCc3cccc(N4CCCC4)n3)nc2c1C [Example 53, 2,3-Dimethyl-5-((6-(pyrrolidin-1-yl)pyridin-2-yl)methoxy)pyrazolo[1,5-a]pyrimidine]
260 nM | Cc1cn2nc(OCc3cccc(N4CCCC4)n3)ccc2n1 [Example 54, 2-Methyl-6-((6-(pyrrolidin-1-yl)pyridin-2-yl)methoxy)imidazo[1,2-b]pyridazine]
600 nM | c1cc(COc2ccc3nc(C4CC4)cn3n2)nc(N2CCCC2)c1 [Example 55, 2-Cyclopropyl-6-((6-(pyrrolidin-1-yl)pyridin-2-yl)methoxy)imidazo[1,2-b]pyridazine]
1050 nM | Cc1c(C(N)=O)nc2ccc(OCc3cccc(N4CCCC4)n3)nn12 [Example 56, 3-Methyl-6-((6-(pyrrolidin-1-yl)pyridin-2-yl)methoxy)imidazo[1,2-b]pyridazine-2-carboxamide]
200 nM | Cc1c(C(F)(F)F)nc2ccc(NCc3cccc(N4CCCC4)n3)nn12 [Example 57, 3-Methyl-N-((6-(pyrrolidin-1-yl)pyridin-2-yl)methyl)-2-(trifluoromethyl)imidazo[1,2-b]pyridazin-6-amine]
300 nM | Cc1nn2ccc(CCc3cccc(N4CCCC4)n3)nc2c1C [Example 58, 2,3-Dimethyl-5-(2-(6-(pyrrolidin-1-yl)pyridin-2-yl)ethyl)pyrazolo[1,5-a]pyrimidine]
